Experimental data as given in ChEMBL document CHEMBL1201862, “PubChem BioAssay data set” (2004).
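Results reflect a 48-hour exposure of cells in 96-well plates to compound at five concentrations. At the GI50, growth is halved.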 Activity calls are given as the source filed them. Rule as the data show it: active = GI50 up to about 1.1 µM and inactive = higher.

Experiments:
Assay in all cases: NCI anticancer screen, dose series, 48 h
786-0 = tested on: 786-0
A498 = tested on: A498
A549 = tested on: A549
ACHN = tested on: ACHN
BT-549 = tested on: BT-549
CAKI-1 = tested on: CAKI-1
CCRF-CEM = tested on: CCRF-CEM
COLO 205 = tested on: COLO 205
DU-145 = tested on: DU-145
EKVX = tested on: EKVX
HCC 2998 = tested on: HCC 2998
HCT-116 = tested on: HCT-116
HCT-15 = tested on: HCT-15
HOP-62 = tested on: HOP-62
HT-29 = tested on: HT-29
Hs-578T = tested on: Hs-578T
IGROV-1 = tested on: IGROV-1
K562 = tested on: K562
KM12 = tested on: KM12
M14 = tested on: M14
MCF7 = tested on: MCF7
MDA-MB-231 = tested on: MDA-MB-231
MDA-MB-435 = tested on: MDA-MB-435
MOLT-4 = tested on: MOLT-4
Malme-3M = tested on: Malme-3M
NCI-H226 = tested on: NCI-H226
NCI-H23 = tested on: NCI-H23
NCI-H460 = tested on: NCI-H460
NCI-H522 = tested on: NCI-H522
NCI/ADR-RES = tested on: NCI/ADR-RES
OVCAR-3 = tested on: OVCAR-3
OVCAR-4 = tested on: OVCAR-4
OVCAR-5 = tested on: OVCAR-5
OVCAR-8 = tested on: OVCAR-8
PC-3 = tested on: PC-3
RXF 393 = tested on: RXF 393
SF-268 = tested on: SF-268
SF-295 = tested on: SF-295
SF-539 = tested on: SF-539
SK-MEL-2 = tested on: SK-MEL-2
SK-MEL-5 = tested on: SK-MEL-5
SK-OV-3 = tested on: SK-OV-3
SN12C = tested on: SN12C
SNB-19 = tested on: SNB-19
SNB-75 = tested on: SNB-75
SR = tested on: SR
T47D = tested on: T47D
TK-10 = tested on: TK-10
U-251 = tested on: U-251
UACC-257 = tested on: UACC-257
UACC-62 = tested on: UACC-62
UO-31 = tested on: UO-31
HL-60 = tested on: HL-60
HOP-92 = tested on: HOP-92
RPMI-8226 = tested on: RPMI-8226
SK-MEL-28 = tested on: SK-MEL-28
SW-620 = tested on: SW-620
LOX IMVI = tested on: LOX IMVI

Measured: GI50

O=C1Oc2ccccc2N/C1=C/C(=O)c1ccc([N+](=O)[O-])cc1
inactive: 786-0 > 100 µM | A498 > 100 µM | A549 > 100 µM | ACHN > 100 µM | BT-549 98.2 µM | CAKI-1 > 100 µM | CCRF-CEM 61 µM | COLO 205 > 100 µM | DU-145 > 100 µM | EKVX > 100 µM | HCC 2998 > 100 µM | HCT-116 > 100 µM | HOP-62 > 100 µM | HT-29 > 100 µM | Hs-578T 23.2 µM | IGROV-1 > 100 µM | K562 > 100 µM | KM12 > 100 µM | M14 > 100 µM | MCF7 > 100 µM | MDA-MB-231 > 100 µM | MDA-MB-435 > 100 µM | MOLT-4 > 100 µM | Malme-3M > 100 µM | NCI-H226 > 100 µM | NCI-H23 > 100 µM | NCI-H460 > 100 µM | NCI-H522 23 µM | NCI/ADR-RES > 100 µM | OVCAR-3 > 100 µM | OVCAR-4 > 100 µM | OVCAR-5 > 100 µM | OVCAR-8 > 100 µM | PC-3 80.7 µM | RXF 393 > 100 µM | SF-268 > 100 µM | SF-295 > 100 µM | SF-539 > 100 µM | SK-MEL-2 > 100 µM | SK-MEL-5 > 100 µM | SK-OV-3 > 100 µM | SN12C > 100 µM | SNB-19 > 100 µM | SNB-75 > 100 µM | SR > 100 µM | T47D > 100 µM | TK-10 > 100 µM | U-251 > 100 µM | UACC-257 > 100 µM | UACC-62 45.8 µM | UO-31 > 100 µM
> 100 µM: HCT-15

CSc1nc(-c2ccc(C)cc2)c(C#N)c(=O)[nH]1
inactive: 786-0 > 100 µM | A498 > 100 µM | A549 > 100 µM | ACHN > 100 µM | BT-549 > 100 µM | CAKI-1 > 100 µM | CCRF-CEM > 100 µM | COLO 205 > 100 µM | DU-145 > 100 µM | EKVX > 100 µM | HCC 2998 > 100 µM | HCT-116 > 100 µM | HL-60 > 100 µM | HOP-62 > 100 µM | HOP-92 85.3 µM | HT-29 > 100 µM | Hs-578T > 100 µM | IGROV-1 > 100 µM | K562 > 100 µM | KM12 > 100 µM | M14 > 100 µM | MCF7 > 100 µM | MDA-MB-231 > 100 µM | MDA-MB-435 > 100 µM | MOLT-4 > 100 µM | NCI-H226 > 100 µM | NCI-H23 > 100 µM | NCI-H460 > 100 µM | NCI-H522 > 100 µM | NCI/ADR-RES > 100 µM | OVCAR-3 > 100 µM | OVCAR-4 > 100 µM | OVCAR-5 > 100 µM | OVCAR-8 > 100 µM | PC-3 > 100 µM | RPMI-8226 > 100 µM | RXF 393 > 100 µM | SF-268 > 100 µM | SF-295 > 100 µM | SF-539 > 100 µM | SK-MEL-28 > 100 µM | SK-MEL-2 > 100 µM | SK-MEL-5 > 100 µM | SK-OV-3 > 100 µM | SN12C > 100 µM | SNB-19 > 100 µM | SNB-75 43.7 µM | SW-620 > 100 µM | T47D 40.5 µM | TK-10 > 100 µM | U-251 > 100 µM | UACC-257 > 100 µM | UACC-62 > 100 µM | UO-31 52 µM
> 100 µM: HCT-15

Cc1ccccc1C1CC(=O)CC(c2ccccc2C)C12C(=O)NC(=O)NC2=O (stereo not given)
inactive: 786-0 > 100 µM | A498 > 100 µM | A549 > 100 µM | ACHN > 100 µM | BT-549 > 100 µM | CAKI-1 > 100 µM | CCRF-CEM > 65.3 µM | COLO 205 > 100 µM | DU-145 > 100 µM | EKVX > 100 µM | HCC 2998 > 100 µM | HCT-116 > 100 µM | HL-60 55 µM | HOP-62 > 100 µM | HOP-92 19 µM | HT-29 > 100 µM | Hs-578T > 100 µM | IGROV-1 62.5 µM | K562 > 100 µM | KM12 > 100 µM | LOX IMVI > 100 µM | M14 > 100 µM | MCF7 > 73.6 µM | MDA-MB-231 > 100 µM | MDA-MB-435 > 77.8 µM | MOLT-4 > 78.5 µM | Malme-3M > 100 µM | NCI-H226 > 100 µM | NCI-H23 > 100 µM | NCI-H460 > 88.5 µM | NCI-H522 > 75.3 µM | NCI/ADR-RES > 100 µM | OVCAR-3 > 100 µM | OVCAR-4 > 62.4 µM | OVCAR-5 > 100 µM | OVCAR-8 > 100 µM | PC-3 > 100 µM | RPMI-8226 26.9 µM | RXF 393 > 100 µM | SF-268 > 100 µM | SF-295 > 100 µM | SF-539 > 32.4 µM | SK-MEL-28 > 100 µM | SK-MEL-2 > 100 µM | SK-MEL-5 > 100 µM | SK-OV-3 > 100 µM | SN12C 1.98 µM | SNB-19 > 100 µM | SNB-75 > 100 µM | SR > 100 µM | SW-620 > 100 µM | T47D > 100 µM | TK-10 > 100 µM | U-251 > 100 µM | UACC-257 > 100 µM | UACC-62 > 100 µM | UO-31 > 100 µM
> 100 µM: HCT-15
